In ChEMBL document CHEMBL2069296, “A novel series of G-quadruplex ligands with selectivity for HIF-expressing osteosarcoma and renal cancer cell lines” (Bioorg Med Chem Lett, 2012):
Active and inactive are the calls of the source. The rule behind the calls is not given here.

How the values were obtained:
[1] = system: Nucleic Acid; assay: Binding affinity to HIF1alpha DNA by surface plasmon resonance assay; assay type: nucleic-acid assay
[2] = system: Nucleic Acid; assay: Binding affinity to HIF2alpha DNA by surface plasmon resonance assay; assay type: nucleic-acid assay
[3] = system: Nucleic Acid; assay: Binding affinity to 5'-GGGGCGGGCACGGGGCGGG-3' DNA by surface plasmon resonance; assay type: nucleic-acid assay
[4] = system: HOS; assay: Antiproliferative activity against human HOS cells after 96 hrs by SRB assay; assay type: functional, cell-based
[5] = system: MG-63; assay: Antiproliferative activity against human MG63 cells after 96 hrs by SRB assay; assay type: functional, cell-based; settings: MG-63, 96 h
[6] = system: HOS-TE85; assay: Antiproliferative activity against human MNNG-HOS cells after 96 hrs by SRB assay; assay type: functional, cell-based; settings: HOS-TE85, 96 h
[7] = system: U2OS; assay: Antiproliferative activity against human U2OS cells after 96 hrs by SRB assay; assay type: functional, cell-based
[8] = system: SAOS-2; assay: Antiproliferative activity against human Saos2 cells after 96 hrs by SRB assay; assay type: functional, cell-based; settings: SAOS-2, 96 h
[9] = system: OST; assay: Antiproliferative activity against human OST cells after 96 hrs by SRB assay; assay type: functional, cell-based
[10] = Antiproliferative activity against human TC71 cells after 96 hrs by SRB assay; assay type: functional, cell-based; settings: TC-71, 96 h
[11] = Antiproliferative activity against human TC32 cells after 96 hrs by SRB assay; assay type: functional, cell-based; settings: TC-32, 96 h
[12] = system: MCF7; assay: Antiproliferative activity against human MCF7 cells after 96 hrs by SRB assay; assay type: functional, cell-based; settings: MCF7, 96 h
[13] = system: A549; assay: Antiproliferative activity against human A549 cells after 96 hrs by SRB assay; assay type: functional, cell-based; settings: A549, 96 h
[14] = system: MIA PaCa-2; assay: Antiproliferative activity against human MIAPaCa2 cells after 96 hrs by SRB assay; assay type: functional, cell-based; settings: MIA PaCa-2, 96 h
[15] = system: PANC-1; assay: Antiproliferative activity against human PANC1 cells after 96 hrs by SRB assay; assay type: functional, cell-based; settings: PANC-1, 96 h
[16] = system: HPAC; assay: Antiproliferative activity against human HPAC cells after 96 hrs by SRB assay; assay type: functional, cell-based
[17] = system: PC-3; assay: Antiproliferative activity against human PC3 cells after 96 hrs by SRB assay; assay type: functional, cell-based; settings: PC-3, 96 h
[18] = Antiproliferative activity against human 786-O cells after 96 hrs by SRB assay; assay type: functional, cell-based; settings: 786-0, 96 h
[19] = system: A498; assay: Antiproliferative activity against human A498 cells after 96 hrs by SRB assay; assay type: functional, cell-based; settings: A498, 96 h
[20] = Antiproliferative activity against human RCC4 cells after 96 hrs by SRB assay; assay type: functional, cell-based; settings: RCC4, 96 h
[21] = Antiproliferative activity against human RCC4/VHL cells after 96 hrs by SRB assay; assay type: functional, cell-based
[22] = Antiproliferative activity against human TC135 cells after 96 hrs by SRB assay; assay type: functional, cell-based; settings: TC135, 96 h
[23] = system: WI-38; assay: Cytotoxicity against human WI38 after 96 hrs by SRB assay; assay type: cell-based; settings: WI-38, 96 h
[24] = system: Nucleic Acid; assay: Binding affinity to HIF1alpha DNA in by circular dichroism; assay type: nucleic-acid assay
[25] = Ratio of IC50 for human RCC4/VHL cells to IC50 for human RCC4 cells; assay type: functional
[26] = Ratio of cell viability in human RCC4/VHL cells to cell viability in human RCC4 cells in hypoxia condition; assay type: functional
[27] = molecular target: Hypoxia-inducible factor 1-alpha (Homo sapiens) (UniProt Q16665); assay: Inhibition of HIF1alpha in human U2OS cells in normaxia condition; assay type: cell-based
Hypoxia-inducible factor 1-alpha (Homo sapiens), sequence (Q16665 whole entry, looked up): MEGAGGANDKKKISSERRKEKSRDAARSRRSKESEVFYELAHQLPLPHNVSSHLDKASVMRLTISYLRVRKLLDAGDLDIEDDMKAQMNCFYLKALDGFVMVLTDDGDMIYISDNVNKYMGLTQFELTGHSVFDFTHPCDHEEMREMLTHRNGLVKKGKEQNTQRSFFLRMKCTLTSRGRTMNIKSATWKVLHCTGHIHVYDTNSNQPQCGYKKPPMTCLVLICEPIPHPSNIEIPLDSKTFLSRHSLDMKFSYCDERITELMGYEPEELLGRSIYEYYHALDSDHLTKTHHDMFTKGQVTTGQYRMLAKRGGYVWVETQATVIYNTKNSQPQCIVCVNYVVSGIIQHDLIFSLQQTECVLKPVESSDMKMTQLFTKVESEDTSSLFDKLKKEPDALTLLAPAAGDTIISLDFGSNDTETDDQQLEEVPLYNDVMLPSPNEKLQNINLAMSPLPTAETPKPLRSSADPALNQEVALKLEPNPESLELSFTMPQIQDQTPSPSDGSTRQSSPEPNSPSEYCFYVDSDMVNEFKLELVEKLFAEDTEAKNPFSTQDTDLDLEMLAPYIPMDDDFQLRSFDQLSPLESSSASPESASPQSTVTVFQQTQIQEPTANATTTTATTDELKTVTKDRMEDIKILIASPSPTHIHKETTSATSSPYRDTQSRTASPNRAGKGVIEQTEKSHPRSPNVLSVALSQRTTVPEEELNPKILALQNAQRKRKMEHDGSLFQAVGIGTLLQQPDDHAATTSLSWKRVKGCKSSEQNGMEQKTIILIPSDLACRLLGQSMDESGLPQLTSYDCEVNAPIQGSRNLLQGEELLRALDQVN

[28] = molecular target: Hypoxia-inducible factor 1-alpha (Homo sapiens) (UniProt Q16665); assay: Inhibition of HIF1alpha in human U2OS cells in hypoxia condition; assay type: cell-based
[29] = system: U2OS; assay: Downregulation of HIF1alpha protein level in human U2OS cells at 5 fold IC50 concentration within 2 hrs by Western blot analysis; assay type: functional, cell-based
[30] = system: U2OS; assay: Downregulation of HIF1alpha mRNA level in human U2OS cells at 5 fold IC50 concentration after 4 hrs by RT-PCR analysis relative to untreated control; assay type: functional
[31] = molecular target: T1, Hypoxia inducible factors; HIF-1-alpha, HIF-2-alpha (Homo sapiens) (UniProt Q16665+Q99814); assay: Inhibition of HIF1 transactivation in human U2OS cells after 4 hrs by luciferase reporter gene assay; assay type: cell-based
[32] = molecular target: T1, Hypoxia inducible factors; HIF-1-alpha, HIF-2-alpha (Homo sapiens); assay: Inhibition of HIF1 transactivation in human U2OS cells after 4 hrs by luciferase reporter gene assay relative to untreated control; assay type: cell-based; settings: concentration not given here
[33] = Therapeutic index, ratio of IC50 for human MG63 cells to IC50 for human WI38 cells; assay type: cell-based, WI-38; settings: MG63 cells and WI38 cells, read-out: Ratio IC50
[34] = Therapeutic index, ratio of IC50 for human MNNG-HOS cells to IC50 for human WI38 cells; assay type: cell-based, HOS-TE85; settings: MNNG-HOS cells and WI38 cells, read-out: Ratio IC50
[35] = Therapeutic index, ratio of IC50 for human U2OS cells to IC50 for human WI38 cells; assay type: cell-based; settings: U2OS cells and WI38 cells, read-out: Ratio IC50
[36] = Therapeutic index, ratio of IC50 for human OST cells to IC50 for human WI38 cells; assay type: cell-based; settings: OST cells and WI38 cells, read-out: Ratio IC50
[37] = Therapeutic index, ratio of IC50 for human TC135 cells to IC50 for human WI38 cells; assay type: cell-based; settings: TC135 cells and WI38 cells, read-out: Ratio IC50
[38] = Therapeutic index, ratio of IC50 for human A549 cells to IC50 for human WI38 cells; assay type: cell-based; settings: A549 cells and WI38 cells, read-out: Ratio IC50
[39] = Therapeutic index, ratio of IC50 for human MIAPaCa2 cells to IC50 for human WI38 cells; assay type: cell-based, MIA PaCa-2; settings: MIAPaCa2 cells and WI38 cells, read-out: Ratio IC50
[40] = Therapeutic index, ratio of IC50 for human 786-O cells to IC50 for human WI38 cells; assay type: cell-based, WI-38; settings: 786-O cells and WI38 cells, read-out: Ratio IC50
[41] = Therapeutic index, ratio of IC50 for human A498 cells to IC50 for human WI38 cells; assay type: cell-based; settings: A498 cells and WI38 cells, read-out: Ratio IC50

For `O=C(CN1CCCC1)Nc1ccc(-n2cc(-c3ccc4ccc(-c5cn(-c6ccc(NC(=O)CN7CCCC7)cc6)nn5)cc4c3)nn2)cc1`, the K [1] was 1.49 ×10⁷ /M, the K [2] was 0.97 ×10⁷ /M and the K [3] was “inactive”. For the same compound, the IC50 [4] was 2.6 µM, the IC50 [5] was greater than 10 µM and the IC50 [6] was 9.1 µM. It also gave an IC50 [7] of 18 µM, an IC50 [8] of 9 µM and an IC50 [9] of 14 µM. It also gave an IC50 [10] of 14 µM, an IC50 [11] of 2.5 µM and an IC50 [12] greater than 100 µM. It also gave an IC50 [13] of 80.5 µM, an IC50 [14] of 25.5 µM and an IC50 [15] of 88 µM. For the same compound, the IC50 [16] was 9.5 µM, the IC50 [17] was 91 µM and the IC50 [18] was 2.6 µM. It also gave an IC50 [19] of 3.5 µM, an IC50 [20] of 5.1 µM and an IC50 [21] of 6.4 µM. It also gave an IC50 [22] of 3.2 µM and an IC50 [23] of 26 µM.
`CCN(CC)CCC(=O)Nc1cccc(-n2cc(-c3ccc4ccc(-c5cn(-c6cccc(NC(=O)CCN(CC)CC)c6)nn5)cc4c3)nn2)c1` gave an IC50 [6] of 3.1 µM, an IC50 [7] of 7.8 µM and an IC50 [8] of 2.8 µM. For the same compound, the IC50 [9] was 2.1 µM, the IC50 [10] was 28 µM and the IC50 [11] was 2.5 µM. The IC50 [12] was 21 µM, the IC50 [13] was 29 µM and the IC50 [14] was 17.5 µM. It also gave an IC50 [15] of 7.4 µM, an IC50 [17] of 7.8 µM and an IC50 [18] of 9.8 µM. The IC50 [19] was 9.9 µM, the IC50 [20] was 1.6 µM and the IC50 [21] was 2.7 µM. The IC50 [22] was 2.6 µM and the IC50 [23] was 10.6 µM.
In the case of `CCN(CC)CCC(=O)Nc1ccc(-n2cc(-c3ccc4ccc(-c5cn(-c6ccc(NC(=O)CCN(CC)CC)cc6)nn5)cc4c3)nn2)cc1`, the IC50 [4] is reported as 5.2 µM, the IC50 [5] is reported as 7 µM and the IC50 [6] is reported as 2.8 µM. The IC50 [7] was 5.1 µM, the IC50 [8] was 2.5 µM and the IC50 [9] was 1.9 µM. It also gave an IC50 [10] of 7.5 µM, an IC50 [11] of 2.1 µM and an IC50 [12] of 9.2 µM. For the same compound, the IC50 [13] was 7.6 µM, the IC50 [14] was 12.5 µM and the IC50 [15] was 8 µM. It also gave an IC50 [16] of 6.9 µM, an IC50 [17] of 8.2 µM and an IC50 [18] of 5.6 µM. The IC50 [19] was 6.9 µM, the IC50 [20] was 1.9 µM and the IC50 [21] was 2.4 µM. For the same compound, the IC50 [22] was 2.2 µM and the IC50 [23] was 7.4 µM.
In the case of `O=C(CN1CCCCC1)Nc1cccc(-n2cc(-c3ccc4ccc(-c5cn(-c6cccc(NC(=O)CN7CCCCC7)c6)nn5)cc4c3)nn2)c1`, the K [1] is reported as 0.81 ×10⁷ /M, the K [2] is reported as 0.59 ×10⁷ /M and the K [3] is reported as “inactive”. It also gave an IC50 [4] of 47 µM, an IC50 [5] of 90 µM and an IC50 [6] of 23 µM. It also gave an IC50 [7] of 22 µM, an IC50 [8] of 16 µM and an IC50 [9] of 37 µM. The IC50 [10] was 81 µM, the IC50 [11] was 6.6 µM and the IC50 [12] was greater than 100 µM. The IC50 [13] was greater than 100 µM, the IC50 [14] was greater than 100 µM and the IC50 [15] was greater than 100 µM. For the same compound, the IC50 [16] was 96 µM, the IC50 [17] was greater than 100 µM and the IC50 [18] was 17.5 µM. It also gave an IC50 [19] of 19 µM, an IC50 [20] of 2.6 µM and an IC50 [21] of 2.7 µM. It also gave an IC50 [22] of 14 µM and an IC50 [23] greater than 10 µM.
With `CCN(CC)CC(=O)Nc1cccc(-n2cc(-c3ccc4ccc(-c5cn(-c6cccc(NC(=O)CN(CC)CC)c6)nn5)cc4c3)nn2)c1` the K [1] was 0.29 ×10⁷ /M, the K [2] was 0.27 ×10⁷ /M and the K [3] was less than 100000 M⁻¹. For the same compound, the Activity [24] was “Active”, the IC50 [4] was 2.4 µM and the IC50 [5] was 7.9 µM. It also gave an IC50 [6] of 3.2 µM, an IC50 [7] of 5.5 µM and an IC50 [8] of 2.6 µM. It also gave an IC50 [9] of 2.6 µM, an IC50 [10] of 7.8 µM and an IC50 [11] of 0.9 µM. It also gave an IC50 [12] of 63 µM, an IC50 [13] of 60 µM and an IC50 [14] of 16.8 µM. It also gave an IC50 [15] of 31 µM, an IC50 [16] of 7.3 µM and an IC50 [17] of 8.05 µM. For the same compound, the IC50 [18] was 2.3 µM, the IC50 [19] was 2.5 µM and the IC50 [20] was 1.3 µM. For the same compound, the IC50 [21] was 2.6 µM, the “Ratio IC50” value [25] was 2 and the Ratio [26] was 2.1. For the same compound, the inhibition [27] was “Dose-dependent effect”, the inhibition [28] was “Dose-dependent effect” and the Activity [29] was “Active”. The Activity [30] was 79.7%, the inhibition [31] was “Dose-dependent effect” and the inhibition [32] was 7%. The IC50 [22] was 2.4 µM, the selectivity ratio [33] was 40 and the selectivity ratio [34] was 40. It also gave a selectivity ratio [35] of 40, a selectivity ratio [36] of 40 and a selectivity ratio [37] of 40. The selectivity ratio [38] was 40, the selectivity ratio [39] was 40 and the selectivity ratio [40] was 40. It also gave a selectivity ratio [41] of 40 and an IC50 [23] of 91 µM.
